Experimental data taken from patent publication US11827622B2, “Crystalline forms of imidacloprid and methods of use thereof” (New York University, priority 2020, dated 2023).

What was measured:
Drosophila melanogaster = experiment: Lethality (knockdown time) on contact with IMI polymorph microcrystals in petri dish, fruit flies; assay type: in vivo; conditions: for KT50 (95% CI): median knockdown time, 2.0 mg microcrystals per 35 mm dish; for times faster-acting than Form I: ratio of KT50 values
Experimental: (§1) Lethality measurements for IMI polymorphs. Microcrystals of IMI Forms I, IV, VI, and IX were prepared by grinding respective single crystals using a mortar and pestle. Their compositions were then analyzed by powder X-ray diffraction (PXRD). Lethality measurements were performed in triplicate for each solid-state form, each accompanied by three controls (no insecticide). 2.0 mg of microcrystals was added to a 35 mm diameter polystyrene petri dish, which was subsequently shaken to disperse the microcrystals throughout the petri dish. Microcrystals was added to a polystyrene petri dish (2.000 mg microcrystals per 35 mm diameter dish for fruit flies; 0.100 mg microcrystals per 100 mm diameter dish for mosquitoes), which was subsequently shaken to disperse the microcrystals throughout the petri dish. Adult mosquitoes (Ae. aegypti, A. quadrimaculatus or C. quinquefasciatus) or fruit flies (D. melanogaster) were sedated with carbon dioxide and 30 female mosquitoes or 20 flies were transferred to each petri dish. The top of the dish was then placed over the bottom and the motion of the insects was recorded with a video camera (Sony HDR-CX455). The knockdown time was measured for each individual insect, with knockdown associated with an insect laying on the bottom surface of the petri dish in a supine position without moving from its original position after 10 seconds.
(§2) Statistical analyses. Logistic regression of knockdown-time curves was preformed to obtain the median knockdown time (KT50) of the test flies and mosquitoes, the 95% confidence intervals (CI), slopes, and standard errors (SE) using Qcal software.
IMI Forms IX, VI, IV were selected for lethality comparison with the commercial Form I, collectively representing a quartet spanning a wide range of free energies. […] A video camera was used to record the knockdown times—a proxy for lethality—for each insect. KT50 values, the times required for 50% of the insects to become immobile and supine, were calculated by logistic regression of knockdown-time curves (FIGS. 34A-34P). Shorter KT50 values correspond to greater lethality. Accordingly, Forms IX, VI and IV were 5.7, 2.5 and 1.8 times faster-acting than Form I.

[1] = assay type: physicochemical
Experimental: IMI polymorphs exposed in open air at ambient temperature are typically stable for at least 6 months. Although the polymorphic forms were distinguishable by visual inspection (from their interference colors between crossed polarizers and morphologies), their identity and any phase transformations were always corroborated by micro-Raman spectroscopy and PXRD. Form IX held at 95° C. on a microscope hot stage in air transformed to Form V in 3 min, which then converted to Form I at 110° C. in 2 min. Form I also can nucleate directly on the surface of Form IX at T>70° C. Form IX crystals confined between glass slides nucleate Form I, V or VI within Form IX at 80° C. within 1 min. […] Form VI transforms to III when they were in contact at 110° C.

Culex quinquefasciatus = experiment: Lethality (knockdown time) on contact with IMI polymorph microcrystals in petri dish, Culex mosquitoes; assay type: in vivo; conditions: Culex females; median knockdown time; 0.100 mg microcrystals per 100 mm dish
Experimental: as §1, §2

[2] = system: Anopheles quadrimaculatus; experiment: Lethality (knockdown time) on contact with IMI polymorph microcrystals in petri dish, Anopheles mosquitoes; assay type: in vivo; conditions: Anopheles females; median knockdown time; 0.100 mg microcrystals per 100 mm dish
Experimental: as §1, §2

Aedes aegypti = experiment: Lethality (knockdown time) on contact with IMI polymorph microcrystals in petri dish, Aedes mosquitoes; assay type: in vivo; conditions: for KT50 (95% CI): Aedes females, median knockdown time, 0.100 mg microcrystals per 100 mm dish
Experimental: as §1, §2

Aedes = experiment: Lethality measurement of IMI vapor, Aedes; assay type: in vivo, Aedes aegypti
Experimental: (§3) Crystalline insecticide was added to an opened glass vial tapped to the bottom of a petri dish, which was subsequently covered with porous polyester substrate. Female Aedes and Drosophila were sedated with carbon dioxide and were transferred onto the porous substrate. An inverted petri dish was then placed over the polyester substrate to seal the assembly. The motion of the Aedes and Drosophila was recorded with a video camera. An opened glass vial containing 2.0 mg IMI microcrystals was tapped to the bottom of the petri dish (FIGS. 35A-35E).

Drosophila = experiment: Lethality measurement of IMI vapor, Drosophila; assay type: in vivo, Drosophila melanogaster
Experimental: as §3

[3] = 2.0 mg IMI microcrystals in opened glass vial under porous polyester substrate

SMILES	KT50 (95% CI) (Drosophila melanogaster)	KT50 (95% CI) (Culex quinquefasciatus)	KT50 (95% CI) [2]	KT50 (95% CI) (Aedes aegypti)	times faster-acting than Form I (Drosophila melanogaster)	also measured
O=[N+]([O-])NC1=NCCN1Cc1ccc(Cl)nc1 [Form I, 1-[(6-chloro-3-pyridinyl)-methyl]-N-nitro-2-imidazolidinimine, reference compound]	562 (536-589) min	573 (568-581) min	524 (515-534) min	643 (621-664) min		thermodynamic stability [1]: the most thermodynamically stable crystal form
O=[N+]([O-])NC1=NCCN1Cc1ccc(Cl)nc1 [Form IX, 1-[(6-chloro-3-pyridinyl)-methyl]-N-nitro-2-imidazolidinimine]	99 (93-105) min	89 (88-91) min	84 (82-86) min	70 (68-71) min	5.7 times	kinetic stability against transformation to other polymorphs [1]: kinetically stable against transformations to other polymorphs; time to nucleation of Form I, V or VI within the form ([1]; crystals confined between glass slides, 80° C.): ≤ 1 min; time of transformation to Form V ([1]; held at 95° C. on microscope hot stage in air): 3 min
O=[N+]([O-])N=C1NCCN1Cc1ccc(Cl)nc1 [Form V, 1-[(6-chloro-3-pyridinyl)-methyl]-N-nitro-2-imidazolidinimine]						time of conversion to Form I ([1]; at 110° C.): 2 min
O=[N+]([O-])N=C1NCCN1Cc1ccc(Cl)nc1 [Form VI, 1-[(6-chloro-3-pyridinyl)-methyl]-N-nitro-2-imidazolidinimine]	223 (210-238) min	192 (189-195) min	143 (141-144) min	152 (147-157) min	2.5 times	
O=[N+]([O-])N=C1NCCN1Cc1ccc(Cl)nc1 [IMI, 1-[(6-chloro-3-pyridinyl)-methyl]-N-nitro-2-imidazolidinimine]						time within which all insects were knocked down (Drosophila melanogaster; direct contact with the same amount of IMI microcrystals in petri dishes): ≤ 10 h; effect of exposure to IMI vapor (Aedes; [3]): remained viable with no nerve firing symptoms; effect of exposure to IMI vapor (Aedes; after 12 hours): remained viable with no nerve firing symptoms; effect of exposure to IMI vapor (Drosophila; [3]): remained viable with no nerve firing symptoms; effect of exposure to IMI vapor (Drosophila; after 12 hours): remained viable with no nerve firing symptoms; time within which all insects were knocked down (Aedes aegypti; Aedes, direct contact with the same amount of IMI microcrystals in petri dishes): ≤ 10 h
O=[N+]([O-])N=C1NCCN1Cc1ccc(Cl)nc1 [Form IV, 1-[(6-chloro-3-pyridinyl)-methyl]-N-nitro-2-imidazolidinimine]	321 (302-343) min	311 (309-313) min	220 (216-224) min	335 (329-342) min	1.8 times	
